Results from patent US20130157285A1, “IDENTIFICATION OF INVASIVE AND SLOW-GROWING TUMORIGENIC CELL SUBSETS IN TUMORS” (The Regents of the University of California, priority 2011, published 2013).

Tests used:
MCF-7 = assay: Fluorescent HA probe binding by flow cytometry (FACS); format: cell-based, human; conditions: Table 1, HA probe binding/uptake
Text: (§1) Simultaneous profiling of cell surface markers and HA binding/uptake required the establishment of a sensitive multiplexed detection method, which could detect both the cell surface receptors and the binding/uptake of ligand (HA). We utilized fluorescence-activated cell sorting (FACS) and established protocols for minimum decoration of cells by antibodies and HA, maximum detection sensitivity at the cell surface, and retained viability/functionality during and after sort. Fluorescent HA probes and antibodies were synthesized and characterized in a panel of human breast cancer cell lines (MDA-MB-231, SUM1315MO2, HS-578T, MDA-MB-468, HCC-1569, BT-20, MCF-10A, S1, T4-2, MCF-7, BT474, SK-BR3, AU565, MDA-MB-361, D920, SK3 [RHAMM−/− and CD44−/− were used as negative controls], and 10T½ [RHAMM+/+ were used as positive controls]). In brief, soluble HA (280,000 dalton) was linked to hydrazide-activated fluorochromes and monoclonal antibodies were directly conjugated to tetrafluorophenyl (TFP) ester activated fluorochromes (Alexa Fluor 647 and sometimes to Alexa Fluor 488) and reacted with the live cells under sterile dark conditions. Four fluorochromes were selected in a manner that provided minimal fluorescent spectral overlaps and maximal brightness for low-expressing markers, which allowed sensitive monitoring of subtle changes in marker expression and HA binding capacity in live cells. Near infrared fluorescence range was selected for HA to extend signal stability during multiple stages of characterizations (Alexa Fluor 647). […] As well, these appeared to non-specifically interact with each other and with cells, which would require extensive characterization and optimization. Therefore, we continued our study using minimally-decorated HA and antibodies by fluorochromes, as described below, and successfully profiled multiple cell surface markers.
(§2) (1) Grow cells to 50% confluence on culture flask; (2) Rinse in Ca^2+-free Hank's Buffered Saline Solution (HBSS/20 mM HEPES, pH 7.3); (3) Harvest cells with non-enzymatic HBSS-based cell dissociation solution; (4) Resuspend in cold and sterile PBS solution that contains Antibiotic, HEPES pH 7.4, Insulin, and Transferrin (PBS/additive solution); (5) Centrifuge and eliminate supernatant; (6) Wash in cold PBS/additive solution; (7) Count cells using cell counter instrument and measure viability; (8) Treat cells (in suspension) with Alexa Flour 647-HA; (9) Incubate for 45 min on ice, in dark.
(§3) For single-color HA-binding flow cytometry: (a) wash the cells, eliminate supernatant and adjust concentration of solution appropriate for flow cytometry and (b) perform live cell flow cytometry immediately.
(§4) Cells were grown to 50%-70% confluence in 75 cm^2 culture flasks in DMEM supplemented with 10% FCS at 37° C. and 5% CO2, then subcultured every 3-4 days. For HA uptake experiments, cells were grown to 50% subconfluence, which was achieved 12-20 hrs after subculture, in order to maximize RHAMM surface display. Cells were rinsed in Ca++-free Hanks Buffered Saline (HBSS) solution/20 mM HEPES, pH 7.3, and removed from the substratum by incubating in non-enzymatic HBSS-based solution (Sigma-Aldrich[H-6648]) for 2-3 min, which preserves cell surface epitopes (Veiseh M, et al, Biomacromolecules 2012, Hamilton S. R. et al, JBC, 2007). Viablity of cells was assessed using a Vi_CELL cell analyzer.
(§5) 0.2 ml of soluble HA (1% HA, MWav=280,000 dalton) was activated in 1 ml of a (0.0028 g/1 ml MES) N-(3-Dimethylaminopropyl)-N′-ethylcarbodiimide hydrochloride (EDAC) solution (Sigma-Aldrich) in 4-morpholineethanesulfonic acid (MES) (20 mM, pH 4.5, Sigma-Aldrich), and the resulting solution was reacted with 0.3 ml of A^647-HA hydrazide, tris(triethylammonium) salt (Invitrogen, 1 mg/ml in H2O) in the dark at RT. The solution was covered in aluminum foil and placed on a rocker for 12 hrs at room temperature. […]

S1 = assay: as above; format: cell-based, human; conditions: Table 1; SI (S1); HA probe binding/uptake
Text: as §1, §2, §3, §4, §5

T4-2 = assay: as above; format: cell-based, human
Text: as §1, §2, §3, §4, §5

SKBR-3 = assay: as above; format: cell-based, human
Text: as §1, §2, §3, §4, §5

MDA-MB-231 [1] = assay: as above; format: cell-based, human
Text: as §1, §2, §3, §4, §5

MCF-10A = assay: as above; format: cell-based, human; conditions: Table 1, HA probe binding/uptake
Text: as §1, §2, §3, §4, §5

[2] = Targeting of HA-based probes in response-to-injury model; format: in vivo, rat; conditions: radiolabel, magnetic resonance and fluorescence labels
Text: (§6) We evaluated the targeting ability of HA-based probes in several modalities (radiolabel, magnetic resonance, and fluorescence) to areas of microenvironment remodeling that are associated with both tissue injury and tumor formation. We chose well-characterized rat balloon injured carotid arteries as a response to injury model, and xenografts of MDA-MB-231 cells as a tumor model.

[3] = system: xenografts of MDA-MB-231 cells; assay: Targeting of HA-based probes in tumor model; format: in vivo; conditions: radiolabel, magnetic resonance and fluorescence labels
Text: as §6

[4] = data obtained from Hyal Corporation, cited from earlier work
MDA-MB-231 tumor cells = assay: Extravasation efficiency in chick chorioallantoic membrane (CAM); format: in vivo, chicken embryos; conditions: 24 hrs after injection into CAM vein; cells pre-treated with HA for 1 hour on ice
Procedure: Fertilized chicken eggs were incubated in a rotary incubator at 37° C. with 90% humidity for 4 days before being removed from the shell and placed in covered dishes and incubated at 37° C. with 90% humidity until usage (PMID:20671724). On day 13 of embryonic development, 7.5×10^4 tumor cells in 100 μL PBS were intravenously injected into a vein within the chorioallantoic membrane (CAM, N=5 each group) (PMID-20671724). Prior to injection, cancer cells were pre-treated with HA (100 mg/ml) or vehicle (PBS) for 1 hour on ice. […] At least 200 cells for each ROI at T=0 was analyzed and enumerated.
Extravasated tumor cells can be observed in interstitial spaces 24-72 hrs after their injection into CAM veins but by this time cell bound F-HA is not detectable since it has been metabolized (FIG. 22B). To determine if F-HA promotes extravasation of dt-Tomato expressing tumor cells, we therefore simply measured the number of extravasated tumor cells at varying times after injection with or without unlabeled HA, used at the same concentration and polydispersity as F-HA, with intravial confocal imaging (FIG. 22C-D). […] We next determined if exposing tumor cells to HA increased extravasation, choosing 24 hrs after injection rather than 72 hrs shown in FIG. 22C to reduce the contribution of proliferation to appearance of extravascular tumor colonies. […]

MDA-MB-231 [5] = assay: Inhibition of HA probe uptake, confocal imaging; format: cell-based, human; conditions: excess HA added either during or prior to addition of HA probe
[6] = Table 1, HA probe binding/uptake

HA binding (MCF-7): Low
HA binding (S1): Medium
HA binding (T4-2; [6]): High
HA binding level (T4-2; Table 6): HA^2+
HA binding (SKBR-3; [6]): Low
HA binding level (SKBR-3; Table 6): HA^+
HA binding (MDA-MB-231 [1]; [6]): Very high
HA binding level (MDA-MB-231 [1]; Table 6): HA^4+
HA binding (MCF-10A): Medium
Substance: hyaluronan [HA]
targeting of HA-based probes to injured tissue [2]: selective targeting
targeting of HA-based probes to tumor tissue [3]: selective targeting
tolerability of HA injected I.V. ([4]; I.V. 1-12 mg/kg): well tolerated
T½ from HA serum levels ([4]; I.V., 1.5 mg/kg dose): 12 h
extravasation efficiency of tumor cells exposed to HA vs untreated cells (MDA-MB-231 tumor cells): twice
effect on signal of HA probe uptake (MDA-MB-231 [5]): reduced
